Here are results for four compounds from ChEMBL document CHEMBL1148653, “Synthesis, structural reassignment, and biological activity of type B MAO inhibitors based on the 5H-indeno[1,2-c]pyridazin-5-one core” (J Med Chem, 2006).

Series [1] has as its target T1, Amine oxidase [flavin-containing] B (Rattus norvegicus, UniProt P19643).
T1 sequence (P19643 whole entry): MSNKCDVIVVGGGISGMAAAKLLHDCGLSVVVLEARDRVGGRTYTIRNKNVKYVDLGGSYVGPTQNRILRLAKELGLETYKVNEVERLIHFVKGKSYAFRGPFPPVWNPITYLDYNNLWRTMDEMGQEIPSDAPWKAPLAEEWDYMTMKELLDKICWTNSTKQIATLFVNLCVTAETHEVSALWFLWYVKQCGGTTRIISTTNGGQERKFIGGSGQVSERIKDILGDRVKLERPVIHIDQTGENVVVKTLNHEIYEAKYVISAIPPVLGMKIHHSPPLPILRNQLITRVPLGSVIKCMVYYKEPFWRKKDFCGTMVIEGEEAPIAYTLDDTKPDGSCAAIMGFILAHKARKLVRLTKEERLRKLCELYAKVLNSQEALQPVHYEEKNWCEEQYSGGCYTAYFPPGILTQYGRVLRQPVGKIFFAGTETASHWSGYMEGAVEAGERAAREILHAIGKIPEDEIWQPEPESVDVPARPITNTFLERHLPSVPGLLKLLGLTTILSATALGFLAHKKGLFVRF
Briefly: Inhibition of MAO-B in rat brain mitochondria.

Series [2] deals with T2, Amine oxidase [flavin-containing] A (Rattus norvegicus, UniProt P21396).
T2 sequence (P21396 whole entry): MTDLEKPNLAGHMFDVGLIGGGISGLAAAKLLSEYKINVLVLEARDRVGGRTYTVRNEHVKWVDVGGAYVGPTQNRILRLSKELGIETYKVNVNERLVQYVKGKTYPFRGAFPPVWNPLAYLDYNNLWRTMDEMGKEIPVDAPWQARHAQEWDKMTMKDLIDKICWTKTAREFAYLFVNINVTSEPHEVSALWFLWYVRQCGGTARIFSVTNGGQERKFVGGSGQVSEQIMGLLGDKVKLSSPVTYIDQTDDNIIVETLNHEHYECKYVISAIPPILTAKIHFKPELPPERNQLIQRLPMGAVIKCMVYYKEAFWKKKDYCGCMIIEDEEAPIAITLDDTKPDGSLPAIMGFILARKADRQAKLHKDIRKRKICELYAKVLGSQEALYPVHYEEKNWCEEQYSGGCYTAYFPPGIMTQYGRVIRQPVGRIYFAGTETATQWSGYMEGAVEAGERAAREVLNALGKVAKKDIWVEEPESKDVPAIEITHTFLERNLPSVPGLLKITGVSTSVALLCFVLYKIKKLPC
Briefly: Inhibition of MAO-A in rat brain mitochondria.

Series [3] deals with T3, Amine oxidase [flavin-containing] A (Homo sapiens, UniProt P21397).
T3 sequence (P21397 whole entry): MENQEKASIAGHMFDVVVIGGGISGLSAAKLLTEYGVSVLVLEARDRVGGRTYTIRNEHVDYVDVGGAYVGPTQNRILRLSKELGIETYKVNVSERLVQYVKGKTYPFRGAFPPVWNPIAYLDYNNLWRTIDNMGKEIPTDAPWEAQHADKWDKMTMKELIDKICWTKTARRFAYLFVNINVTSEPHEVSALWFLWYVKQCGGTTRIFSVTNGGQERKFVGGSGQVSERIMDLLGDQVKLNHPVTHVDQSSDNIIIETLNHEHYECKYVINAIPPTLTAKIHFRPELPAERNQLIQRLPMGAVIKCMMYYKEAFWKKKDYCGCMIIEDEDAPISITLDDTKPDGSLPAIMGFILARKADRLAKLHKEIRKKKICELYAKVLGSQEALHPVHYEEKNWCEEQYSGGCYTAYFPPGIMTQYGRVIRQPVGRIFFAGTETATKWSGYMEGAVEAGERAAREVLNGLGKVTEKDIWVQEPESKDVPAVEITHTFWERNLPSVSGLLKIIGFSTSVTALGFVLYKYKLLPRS
Briefly: Inhibition of MAO-A in human placental mitochondria at 5 uM. Details: species or system Placenta; call rule not given here.

In the case of `COc1ccc2c(c1)-c1nnc(C)cc1C2=O`, the IC50 in series [1] and in series [2] was more than 1000 nM throughout.
Take `Cc1cc2c(nn1)-c1cc(OCc3ccccc3)ccc1C2=O`: the IC50 in series [1] was 170 nM; in series [2] it was more than 1000 nM.
`COc1ccc2c(c1)-c1nnc(-c3cccc(C(F)(F)F)c3)cc1C2=O`: the Inhibition result in series [3] is recorded as “Not Active”.
Take `COc1ccc2c(c1)C(=O)c1cc(-c3cccc(C(F)(F)F)c3)nnc1-2`: in series [3], the Inhibition result was “Not Active”.
